The target of data set [1] is plant cereblon (Cereblon ligand binding domain) (Arabidopsis thaliana, UniProt F4ISN3). Kind of data set: Ligand binding affinity by microscale thermophoresis (Monolith), labeled Cereblon ligand binding domain. The settings on record: MST, RED-tris-NTA His-tag labeled Cereblon ligand binding domain, 25 nM labeled protein; binding to plant cereblon; read-out: Plant CRBN Kd. Here is the method: The binding affinity of the described test compounds was determined using RED-tris-NTA His-tag labeled Cereblon ligand binding domain. The labeling of the Cereblon ligand binding domain was performed according to manufacturer's protocol in assay buffer (50 nM protein: 10 nM dye, 5:1 protein to dye ratio). 200 μM compound in assay buffer (10 mM HEPES pH 7.4, 300 mM NaCl, 0.1% Pluronic-147, 10% Glycerol, 5 mM DTT) was created from 10 mM compound stock in DMSO. A 16-point serial dilution was achieved by taking 10 μL of the 200 μM first well and diluting into 10 μL of assay buffer in the second well, which was diluted in 10 μL assay buffer in the third well, and so on. DMSO content of each well matched to 2%. 10 μL of 50 nM CRBN was added to each well and mixed thoroughly by pipetting. Final assay concentration of 25 nM labeled protein and highest compound concentration of 100 μM, 1% DMSO.
Samples were incubated at room temperature in the dark for five minutes, then collected in standard Monolith capillaries. Assay was performed on the Monolith NT.155Pico using automated excitation level and medium power on M.O. Control software. Analysis of MST traces and determination of dissociation constants and was conducted in M.O. Affinity Analysis software, and the results are shown in Table 2 below.
Background: In MST a laser heats a spot of the sample, and binding alters the fluorescence response.

Data set [2] is described as follows: Uptake in plant cells: LCMS quantification in treated Abutilon leaves and leaf washings. The settings on record: for concentration at 24 h: Abutilon (plant), topical, 10 μL of 400 μM formulation per leaf. Type of data set: in vivo. Here is the method: Abutilon plants were sown in 3 inch pots and allowed to germinate and reach the two leaf stage. At the two leaf stage, plants were separated into groups of 8 plants and had one of their first true leaves labeled with a black marker. Formulation treatment samples were prepared using the following protocol. All treatment samples were prepared to 400 μM. Just before treatment, samples were emulsified and 10 μL of formulated compound was pipetted onto leaves marked for treatment in small droplets evenly across the leaf surface. Once all leaves were treated, they were allowed to sit undisturbed in a growth chamber for 24 hours. After 24 hours plants were removed from the chamber for sample collection.
Using clean scissors treated leaves were removed from the plants, and washed in 20 mL of LCMS grade acetonitrile. A sample of the wash solution was collected and set aside for analysis. The washed leaves were then stored in 7 mL centrifuge tubes and set aside. 8 treated leaves from a grouping were stored in the same sample tube. The untreated leaves were collected and stored in separate 7 mL tubes. The same was done with new growth.
The samples were stored in a −80° C. freezer for 24 hours before milling. Fresh stock of 80:20 LCMS grade acetonitrile and water was prepared as a milling solution. 3 to 4 ceramic milling beads were added to each tube along with 300 μL of milling solution. Tubes were sealed and put into a benchtop homogenizer. Samples were milled for two 12 second intervals at maximum speed with a 30 second rest period in between. Samples were then moved to a 4° C. centrifuge where they were centrifuged at 15000 rpm for 6 minutes. Supernatant was collected and put into 2 mL microcentrifuge tubes. […]
Samples were run with injections of 10 μL. Data was analyzed and calibration curves were built for known samples, using area under the curve for [M+H]. Unknown concentrations were calculated with the calibration curves to determine the amount of PROTAC® compound present at 24 hours in treated leaves and in the leaf washings.

For data set [3], the system named is Matricaria recutita, Diplotaxis tenuifolia, Agrostis spp., Poa annua, or Arabidopsis thaliana. The data set is described as follows: Plant phenotyping assay (herbicidal phenotypes, 96-well plates). Also: key: '+++' is highly active; '++' is moderately active; '+' is weakly active; '−' is inactive. Type of data set: in vivo. Conditions: visual score of herbicidal phenotypes after seven days; 238, 475, 950, and 1900 g ai/ha (50-400 uM).

Each structure is given as a SMILES string. Where two headings read alike, the source gives them in different places.

plant cereblon (Cereblon ligand binding domain), sequence (F4ISN3 1-547): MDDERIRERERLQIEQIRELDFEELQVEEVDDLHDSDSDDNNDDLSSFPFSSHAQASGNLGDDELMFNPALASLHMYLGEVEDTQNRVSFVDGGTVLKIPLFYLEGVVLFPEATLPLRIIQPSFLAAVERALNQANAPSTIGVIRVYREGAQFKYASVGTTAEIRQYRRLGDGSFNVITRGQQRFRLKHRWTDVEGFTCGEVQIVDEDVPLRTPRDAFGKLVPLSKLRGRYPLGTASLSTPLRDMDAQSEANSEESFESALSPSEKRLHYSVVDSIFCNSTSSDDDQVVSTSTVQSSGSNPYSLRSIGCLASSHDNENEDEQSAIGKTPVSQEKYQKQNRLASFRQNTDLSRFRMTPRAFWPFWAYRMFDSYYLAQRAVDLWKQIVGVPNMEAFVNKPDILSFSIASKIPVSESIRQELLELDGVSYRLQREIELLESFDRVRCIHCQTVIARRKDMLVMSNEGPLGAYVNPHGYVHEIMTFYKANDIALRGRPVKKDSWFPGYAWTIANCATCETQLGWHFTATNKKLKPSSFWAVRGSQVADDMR

Turning to `COCCOc1cc(OCc2ccc(CN3CCOCC3)cc2)c2c(c1)C(=O)N([C@H]1CCC(=O)NC1=O)C2` [Example 21, (3S)-3-[6-(2-methoxyethoxy)-4-[[4-(morpholinomethyl)-phenyl]methoxy]-1-oxo-isoindolin-2-yl]piperidine-2,6-dione], in data set [1], the Kd (commonly the concentration at which binding is half-saturated) was less than 100 nM. For the compound `COc1cnc(OC)n2nc(NS(=O)(=O)c3c(OCCOCCOCCOCCOCCOCCOc4ccc5c(c4)C(=O)N(C4CCC(=O)NC4=O)C5=O)cccc3C(F)(F)F)nc12` (stereo not drawn) [Compound 4-B, N-(5,8-Dimethoxy-[1,2,4]triazolo[1,5-c]pyrimidin-2-yl)-2-((17-((2-(2,6-dioxopiperidin-3-yl)-1,3-dioxoisoindolin-5-yl)oxy)-3,6,9,12,15-pentaoxaheptadecyl)oxy)-6-(trifluoromethyl)benzenesulfonamide], the concentration at 24 h is 0.342 µM in data set [2] (leaf wash (20 mL acetonitrile), wash of treated Abutilon leaves in 20 mL acetonitrile, 24 hours after treatment, read-out: Average Concentration μM (leaf wash)) and 0.491 µM in data set [2] (treated leaves (milled extract supernatant), Abutilon treated leaves, 24 hours after 10 μL of 400 μM formulated compound on leaf, read-out: Average Concentration μM (treated leaves)). Besides, in data set [2] (Abutilon leaves, 24 hours), the Uptake by leaves entry is “effectively taken up by leaves”. The “Plant Activity” value in data set [3] is “+++”.

On to `COCCNC(=O)C1CCN(Cc2ccc(COc3cccc4c3CN(C3CCC(=O)NC3=O)C4=O)cc2)C1` [Example 18, 1-(4-(((2-((S)-2,6-dioxopiperidin-3-yl)-1-oxoisoindolin-4-yl)oxy)methyl)benzyl)-N-(2-methoxyethyl)pyrrolidine-3-carboxamide], for which, in data set [1], the Kd was 100 to 1000 nM.

For the compound `COCCNc1cc(CN2CCOCC2)ccc1COc1cccc2c1CN([C@H]1CCC(=O)NC1=O)C2=O` [Example 23, (S)-3-(4-((2-((2-methoxyethyl)amino)-4-(morpholinomethyl)-benzyl)oxy)-1-oxoisoindolin-2-yl)piperidine-2,6-dione], in data set [1], the Kd was 100 to 1000 nM. Take `COCCNC(=O)c1cc(COc2cccc3c2CN([C@H]2CCC(=O)NC2=O)C3=O)ccc1CN1CCOCC1` [Example 24, (S)-5-(((2-(2,6-dioxopiperidin-3-yl)-1-oxoisoindolin-4-yl)oxy)methyl)-N-(2-methoxyethyl)-2-(morpholinomethyl)benzamide]: the Kd in data set [1] lay in the range of 100 to 1000 nM. Still for that read-out and setting: then `COCCOCC1COCCN1Cc1ccc(COc2cccc3c2CN([C@H]2CCC(=O)NC2=O)C3=O)cc1` (stereo partly drawn) [Example 11, (3S)-3-(4-((4-((3-((2-methoxyethoxy)methyl)morpholino)methyl)benzyl)-oxy)-1-oxoisoindolin-2-yl)piperidine-2,6-dione], with less than 100 nM.

(Values after US20240365736A1, “COMPOSITIONS AND METHODS FOR TARGETED DEGRADATION OF PROTEINS IN A PLANT CELL” (Oerth Bio LLC, priority 2021, published 2024).)
